Among the data in patent US10633394B2, “Heterocyclic derivatives and use thereof” (C & C RESEARCH LABORATORIES, priority 2014, dated 2020) are IC50 values, retold here.

Holding throughout (format): cell-based
The target of assay [1] is T1, STAT3 (Homo sapiens, UniProt P40763).
T1 construct: plasmid pSTAT3-TA-luc), which contains a stably operating STAT3 promoter; endogenous in cells
In words: STAT3 reporter gene (luciferase) assay in LNCaP stable cell line stimulated with IL-6. The conditions noted are these: LNCaP stable cell line (pSTAT3-TA-luc), IL-6 10 ng/mL, 24 hours. The method, then: 1-1) Experiment on the Inhibition of STAT3 Activity
A human prostate cancer cell line (LNCaP stable cell line; plasmid pSTAT3-TA-luc), which contains a stably operating STAT3 promoter, was cultured in RPMI1640 medium (Cat No. 11875, Life Technologies) containing 10% fetal bovine serum (FBS) (Cat No. SH30396, Thermo Scientific) and 150 μg/mL G-418 solution (Cat No. 04 727 894 001, Roche). The reporter gene assay using LNCaP stable cell line was performed in RPMI1640 medium containing 3% DCC-FBS without G-418 solution. LNCaP stable cells were plated in two (2) white 96-well plates with 30,000 cells/50 μL in each well. The cells were cultured at 37° C., under 5% CO2 for 24 hours, and then treated with the compounds listed in Examples which were diluted in various concentrations. Subsequently, IL-6 was added to each well with a final concentration of 10 ng/mL. Upon completion of the treatment with the compounds and IL-6, the cells were cultured at 37° C., under 5% CO2 for 24 hours. The plates were observed under microscope and drug precipitation and particular findings were investigated and recorded.
The luciferase assay and the cell viability assay were performed respectively with one of the two plates. For the luciferase assay, the liquid media in the 96-well plate was removed, and then, 20 μL of passive cell lysis buffer was added to each well. After shaking the plate for 30 minutes, luciferase activities of each well were measured in a PHERAstar™ microplate reader (BMG LABTECH) using a luciferase assay system (Cat No. E1501, Promega). For the cell viability assay, the 96-well plate was placed at room temperature for 30 minutes, added with 20 μL/well of CellTiter-Glo solution (Cat No. G7573, Promega), and shaken for 10 minutes in order to measure cytotoxicity caused by the compounds listed in Examples with a PHERAstar™ microplate reader (BMG LABTECH). Wells without 0.1% DMSO and stimulation were used as a negative control and wells with 0.1% DMSO and stimulation were used as a positive control.
The results of evaluation on the inhibitory effect of the compounds listed in the Examples on the dimerization of STAT3 and STAT1 obtained via the STAT3 and STAT1 reporter gene assays are shown in Table 6 below.
Background: In a reporter assay the amount or activity of a reporter protein is the signal.

Assay [2] has as its system MDA-MB-468. The experiment in a line: Cell growth inhibition assay (CellTiter-Glo), breast cancer cell line MDA-MB-468. The conditions noted are these: Homo sapiens; MDA-MB-468 cells, 96 hours. On the procedure:
(§1) The inhibitory effects of the compounds of the present invention against the growth of cancer cells were evaluated as shown below. The cancer cell lines including stomach cancer cell line (NCI-N87) and breast cancer cell line (MDA-MB-468) were cultured under the protocol provided by each supplier. Each type of cells to be used in experiments was sub-cultured in a 96-well plate by counting the exact number of cells using Tali™ Image-based Cytometer (Life Technologies). In a 96-well plate, NCI-N87 was employed with 5,000 cells/well; and MDA-MB-468 was employed with 10,000 cells/well. The cells were treated with the compounds listed in Examples which were diluted in various concentrations. Upon completion of the compounds treatment, NCI-N87 cells were cultured at 37° C. under 5% CO2 for 96 hours, and MDA-MB-468 cells were cultured at 37° C. in air for 96 hours. Subsequently, the cells were observed under microscope and drug precipitation and particular findings were investigated and recorded. And then, the 96-well plate was placed at room temperature for 30 minutes, added with 20 μL/well of CellTiter-Glo solution (Cat No. G7573, Promega) and shaken for 10 minutes, followed by being subjected to the measurement using PHERAstar™ microplate reader (BMG LABTECH) according to the supplier's general luminometer protocol. Wells where only culture liquid added without cell plating were used as a negative control, whereas wells where culture liquid containing 0.1% DMSO instead of the compounds listed in Examples were used as a positive control.
For orientation: Cellular ATP, detected with luciferase, serves as a proxy for viable cell number.

The subject of assay [3] is NCI-N87. In words: Cell growth inhibition assay (CellTiter-Glo), stomach cancer cell line NCI-N87. The conditions noted are these: Homo sapiens; NCI-N87 cells, 96 hours. On the procedure:
as §1

T1 sequence (P40763 whole entry): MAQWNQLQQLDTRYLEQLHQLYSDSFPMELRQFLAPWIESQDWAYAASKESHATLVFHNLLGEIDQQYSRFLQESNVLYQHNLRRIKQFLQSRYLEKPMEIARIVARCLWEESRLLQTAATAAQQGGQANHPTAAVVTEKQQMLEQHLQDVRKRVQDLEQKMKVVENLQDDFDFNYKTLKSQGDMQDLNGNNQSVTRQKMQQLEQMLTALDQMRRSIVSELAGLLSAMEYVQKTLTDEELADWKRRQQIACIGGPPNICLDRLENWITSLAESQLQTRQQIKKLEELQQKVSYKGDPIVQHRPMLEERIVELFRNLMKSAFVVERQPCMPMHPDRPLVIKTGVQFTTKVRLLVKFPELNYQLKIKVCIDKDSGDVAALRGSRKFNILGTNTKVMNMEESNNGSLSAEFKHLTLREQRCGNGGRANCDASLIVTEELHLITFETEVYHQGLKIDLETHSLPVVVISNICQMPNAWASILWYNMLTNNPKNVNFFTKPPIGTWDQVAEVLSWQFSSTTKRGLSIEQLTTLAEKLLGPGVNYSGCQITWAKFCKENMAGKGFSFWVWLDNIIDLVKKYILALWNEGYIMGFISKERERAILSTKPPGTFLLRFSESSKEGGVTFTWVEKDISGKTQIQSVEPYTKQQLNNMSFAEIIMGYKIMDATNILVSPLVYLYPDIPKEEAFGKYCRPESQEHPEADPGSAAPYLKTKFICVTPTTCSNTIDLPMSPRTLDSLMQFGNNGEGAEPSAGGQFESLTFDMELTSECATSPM

The term IC50 denotes the point on the concentration scale where inhibition reaches its midpoint. For `CS(=O)(=O)[C@@H]1CCOc2cc3sc(C(=O)Nc4cc(Cl)nc(Oc5ccc(Cl)cc5)c4)cc3cc21` [Example 44, (R)—N-(2-chloro-6-(4-chlorophenoxy)pyridin-4-yl)-4-(methylsulfonyl)-3,4-dihydro-2H-thieno[3,2-g]chromene-7-carboxamide], the IC50 in assay [1] worked out at 1.5 µM; in assay [2], 0.086 µM; in assay [3], 1.8 µM.

As for `Cc1cc(Cl)ccc1Oc1cc(NC(=O)c2cc3cc4c(cc3s2)OCCC4S(C)(=O)=O)cc(Cl)n1` (stereo not drawn) [Example 21, N-(2-chloro-6-(4-chloro-2-methylphenoxy)pyridin-4-yl)-4-(methylsulfonyl)-3,4-dihydro-2H-thieno[3,2-g]chromene-7-carboxamide], the results for the IC50 in assay [1], in assay [2] and in assay [3] were 0.011 µM, 0.0051 µM and 0.018 µM, respectively.

Consider `CS(=O)(=O)N1CCCOc2cc3sc(C(=O)Nc4cc(Cl)nc(Oc5ccc(Cl)cc5)c4)cc3cc21` [Example 3, N-(2-chloro-6-(4-chlorophenoxy)pyridin-4-yl)-1-(methylsulfonyl)-1,2,3,4-tetrahydrothieno[3′,2′:4,5]benzo[1,2-b][1,4]oxazepine-8-carboxamide], for which the half-maximal inhibitory concentration (IC50) in assay [1] was determined as 0.01 µM; in assay [3], 0.045 µM.

With `CS(=O)(=O)C1CCOc2cc3sc(C(=O)Nc4cc(Cl)nc(Oc5ccc(Cl)c(F)c5)c4)cc3cc21` (stereo not drawn) [Example 19, N-(2-chloro-6-(4-chloro-3-fluorophenoxy)pyridin-4-yl)-4-(methylsulfonyl)-3,4-dihydro-2H-thieno[3,2-g]chromene-7-carboxamide], the IC50 was 0.0084 µM in assay [1], 0.0025 µM in assay [2] and 0.0061 µM in assay [3].

For the compound `CS(=O)(=O)N1CCNc2cc3sc(C(=O)Nc4cc(Cl)nc(Oc5ccc(Cl)cc5)c4)cc3cc21` [Example 50, N-(2-chloro-6-(4-chlorophenoxy)pyridin-4-yl)-1-(methylsulfonyl)-1,2,3,4-tetrahydrothieno[2,3-g]quinoxaline-7-carboxamide], the values for the IC50 in assay [1] and in assay [3] were 0.0082 µM and 0.0091 µM, respectively.

`COc1ccc(Oc2cc(NC(=O)c3cc4cc5c(cc4s3)OCCC5S(C)(=O)=O)cc(Cl)n2)cc1` (stereo not drawn) [Example 22, N-(2-chloro-6-(4-methoxyphenoxy)pyridin-4-yl)-4-(methylsulfonyl)-3,4-dihydro-2H-thieno[3,2-g]chromene-7-carboxamide]: the IC50 in assay [1] is 0.03 µM; in assay [2], 0.017 µM; in assay [3] it was 0.071 µM.

In the case of `CS(=O)(=O)C1COCc2cc3sc(C(=O)Nc4cc(Cl)nc(Oc5ccc(Cl)cc5)c4)cc3cc21` (stereo not drawn) [Example 12, N-(2-chloro-6-(4-chlorophenoxy)pyridin-4-yl)-5-(methylsulfonyl)-5,8-dihydro-6H-thieno[3,2-g]isochromene-2-carboxamide], the IC50 in assay [1] came out at 0.003 µM; in assay [2] it was 0.0028 µM; in assay [3] it was 0.0018 µM.

With `CS(=O)(=O)C1CCOc2cc3sc(C(=O)Nc4cc(Cl)nc(Oc5ccc(F)cc5)c4)cc3cc21` (stereo not drawn) [Example 26, N-(2-chloro-6-(4-fluorophenoxy)pyridin-4-yl)-4-(methylsulfonyl)-3,4-dihydro-2H-thieno[3,2-g]chromene-7-carboxamide], the IC50 in assay [1] was found to be 0.0073 µM; in assay [2] it was 0.0046 µM; in assay [3], 0.0072 µM.

Compound `CS(=O)(=O)C1CCOc2cc3sc(C(=O)Nc4cc(Cl)nc(Oc5ccccc5C(F)(F)F)c4)cc3cc21` (stereo not drawn) [Example 39, N-(2-chloro-6-(2-(trifluoromethyl)phenoxy)pyridin-4-yl)-4-(methylsulfonyl)-3,4-dihydro-2H-thieno[3,2-g]chromene-7-carboxamide] registered an IC50 in assay [1] of 0.014 µM.

Regarding `CS(=O)(=O)[C@H]1CCOc2cc3sc(C(=O)Nc4cc(Cl)nc(Oc5ccc(Cl)cc5)c4)cc3cc21` [Example 43, (S)—N-(2-chloro-6-(4-chlorophenoxy)pyridin-4-yl)-4-(methylsulfonyl)-3,4-dihydro-2H-thieno[3,2-g]chromene-7-carboxamide], the IC50 in assay [1] worked out at 0.018 µM; in assay [2] it was 0.0029 µM; in assay [3] it was 0.015 µM.

Take `[N-]=[N+]=NC1CCOc2cc3sc(C(=O)Nc4cc(Cl)nc(Oc5ccc(Cl)cc5)c4)cc3cc21` (stereo not drawn) [Example 55, 4-azido-N-(2-chloro-6-(4-chlorophenoxy)pyridin-4-yl)-3,4-dihydro-2H-thieno[3,2-g]chromene-7-carboxamide]: the IC50 is 0.039 µM in assay [1], 0.078 µM in assay [2] and 1.2 µM in assay [3].

Take `CC1(C)CCN(S(C)(=O)=O)c2cc3cc(C(=O)Nc4cc(Cl)nc(Oc5ccc(Cl)cc5)c4)sc3cc21` [Example 4, N-(2-chloro-6-(4-chlorophenoxy)pyridin-4-yl)-8,8-dimethyl-5-(methylsulfonyl)-5,6,7,8-tetrahydrothieno[2,3-g]quinoline-2-carboxamide]: the IC50 in assay [1] was determined as 0.93 µM; in assay [3], 4.1 µM.

For `CC(C)(c1ccc(Cl)cc1)c1cc(Cl)cc(NC(=O)c2cc3cc4c(cc3s2)OCCN4S(C)(=O)=O)c1` [Example 56, N-(3-chloro-5-(2-(4-chlorophenyl)propan-2-yl)phenyl)-1-(methylsulfonyl)-2,3-dihydro-1H-thieno[3′,2′:4,5]benzo[1,2-b][1,4]oxazine-7-carboxamide], the 50% inhibitory concentration (IC50) amounted to 0.0028 µM in assay [1] and 0.019 µM in assay [3].

In assay [1], `CS(=O)(=O)C1CCOc2cc3sc(C(=O)Nc4cc(Cl)nc(Oc5cc(Cl)ccc5F)c4)cc3cc21` (stereo not drawn) [Example 35, N-(2-chloro-6-(5-chloro-2-fluorophenoxy)pyridin-4-yl)-4-(methylsulfonyl)-3,4-dihydro-2H-thieno[3,2-g]chromene-7-carboxamide] gave an IC50 of 0.01 µM.

Consider `CS(=O)(=O)N1CCCc2cc3sc(C(=O)Nc4cc(Cl)nc(Oc5ccc(Cl)cc5)c4)cc3cc21` [Example 6, N-(2-chloro-6-(4-chlorophenoxy)pyridin-4-yl)-5-(methylsulfonyl)-5,6,7,8-tetrahydrothieno[2,3-g]quinoline-2-carboxamide], for which the IC50 was 0.003 µM in assay [1] and 0.0055 µM in assay [3].

Regarding `CS(=O)(=O)C1CCOc2cc3sc(C(=O)Nc4cc(Cl)nc(Oc5cccc(Cl)c5F)c4)cc3cc21` (stereo not drawn) [Example 36, N-(2-chloro-6-(3-chloro-2-fluorophenoxy)pyridin-4-yl)-4-(methylsulfonyl)-3,4-dihydro-2H-thieno[3,2-g]chromene-7-carboxamide], the IC50 in assay [1] is 0.014 µM. This lies in the double-digit nanomolar range.

Take `CC1(C)CN(S(C)(=O)=O)c2cc3cc(C(=O)Nc4cc(Cl)nc(Oc5ccc(Cl)cc5)c4)sc3cc2O1` [Example 2, N-(2-chloro-6-(4-chlorophenoxy)pyridin-4-yl)-3,3-dimethyl-1-(methylsulfonyl)-2,3-dihydro-1H-thieno[3′,2′:4,5]benzo[1,2-b][1,4]oxazine-7-carboxamide]: the IC50 is 0.17 µM in assay [1] and 1.2 µM in assay [3].

For the compound `CS(=O)(=O)N1CCOc2cc3sc(C(=O)Nc4cc(Cl)nc(Oc5ccc(Cl)cc5)c4)cc3cc21` [Example 1, N-(2-chloro-6-(4-chlorophenoxy)pyridin-4-yl)-1-(methylsulfonyl)-2,3-dihydro-1H-thieno[3′,2′:4,5]benzo[1,2-b][1,4]oxazine-7-carboxamide], the IC50 in assay [1] came out at 0.0026 µM; in assay [3] it was 0.0083 µM.

With `Cc1ccc(Oc2cc(NC(=O)c3cc4cc5c(cc4s3)OCCC5S(C)(=O)=O)cc(Cl)n2)cc1Cl` (stereo not drawn) [Example 38, N-(2-chloro-6-(3-chloro-4-methylphenoxy)pyridin-4-yl)-4-(methylsulfonyl)-3,4-dihydro-2H-thieno[3,2-g]chromene-7-carboxamide], the IC50 in assay [1] was found to be 0.0088 µM.
